Laboratory results reported in patent publication US8324190B2, “Treatment of proliferative disorders with amino-substituted (E)-2,6- dialkoxystyryl 4-substituted benzylsulfones” (Temple University—Of The Commonwealth System of Higher …, priority 2002, dated 2012).
Structures can show the parent of a compound that is named as a salt.

Experiments:
Assay in all cases: Tumor cell viability assay, Trypan blue exclusion
Assay type in all cases: cell-based
Details in all cases: cell viability after 96 hours
[1] = system: breast adenocarcinoma cell line BT-20
Description: (§1) BT-20 is an estrogen-unresponsive cell line. NIH/3T3 and HFL are normal murine and human fibroblasts, respectively. BT-20, DLD-1 and H157 were grown in Dulbecco's modified Eagle's medium (DMEM) containing 10% fetal bovine serum supplemented with penicillin and streptomycin. DU145 was cultured in RPMI with 10% fetal bovine serum containing penicillin and streptomycin. NIH3T3 and HFL cells were grown in DMEM containing 10% calf serum supplemented with penicillin and streptomycin. Cells were plated at density levels of 1.0×10^5 cells per well in six-well plates. Cell cultures were maintained at 37° C. in a humidified atmosphere of 5% CO2. Cells were treated with compounds of the invention at various concentrations. Cell viability was determined after 96 hours by the Trypan blue exclusion method. […] The number of viable cells remaining after 96 hours of treatment was determined using hemacytometer following trypan blue staining. The number of viable cells has been plotted as the percent of Vehicle treated (control) cells.

[2] = system: colorectal carcinoma cell line DLD-1
Description: as §1

[3] = system: prostate carcinoma cell line DU-145
Description: as §1

[4] = system: non-small cell lung carcinoma cell line H157
Description: as §1

Row | Compound | IC50 [1] [µM] | IC50 [2] [µM] | IC50 [3] [µM] | IC50 [4] [µM]
1 | COc1cc(OC)c(/C=C/S(=O)(=O)Cc2ccc(OC)c(NC(=O)CCCC(=O)O)c2)c(OC)c1 [Example 37, (E)-2,4,6-trimethoxystyryl-3-(glutaramido)-4-methoxybenzyl-sulfone] | < 10 | < 10 | < 10 | < 10
2 | COc1cc(OC)c(/C=C/S(=O)(=O)Cc2ccc(OC)c(NC(=O)CCl)c2)c(OC)c1 [Example 7, (E)-2,4,6-Trimethoxystyryl-3-(chloroacetamido)-4-methoxybenzyl-sulfone] | < 10 | < 10 | < 10 | < 10
3 | COc1cc(OC)c(/C=C/S(=O)(=O)Cc2ccc(OC)c(NC(=O)c3cc([N+](=O)[O-])cc([N+](=O)[O-])c3)c2)c(OC)c1 [Example 5, (E)-2,4,6-trimethoxystyryl-3-(3,5,dinitrobenzamido)-4-methoxy-benzylsulfone] | < 10 | < 10 | < 10 | < 10
4 | CC[N+](CC)(CC)CC(=O)Nc1cc(CS(=O)(=O)/C=C/c2c(OC)cc(OC)cc2OC)ccc1OC [Example 28, (E)-2,4,6-trimethoxystyryl-3-(triethylammoniumacetamido)-4-methoxybenzylsulfone] | < 10 | < 10 | < 10 | < 10
5 | COc1cc(OC)c(/C=C/S(=O)(=O)Cc2ccc(OC)c(NC(=O)C[n+]3ccccc3)c2)c(OC)c1 [Example 25, (E)-2,4,6-trimethoxystyryl-3-(pyridinium-1-yl)acetamido-4-methoxybenzylsulfone] | < 10 | < 10 | < 10 | < 10
6 | (E)-2,4,6-Trimethoxystyryl-3-amino-4-methoxybenzylsulfone-L-lysineamide [Example 13] | < 10 | < 10 | < 10 | < 10
7 | COc1cc(OC)c(/C=C/S(=O)(=O)Cc2ccc(OC)c(NC(=O)CN(C)C)c2)c(OC)c1 [Example 21, (E)-2,4,6-trimethoxystyryl-3-(dimethylaminoacetamido)-4-methoxybenzylsulfone] | < 10 | < 10 | < 10 | < 10
8 | (E)-2,4,6-Trimethoxystyryl-3-amino-4-methoxybenzylsulfone-L-serineamide [Example 14] | < 10 | < 10 | < 10 | < 10
9 | COc1cc(OC)c(/C=C/S(=O)(=O)Cc2ccc(OC)c(NC(=O)COC(=O)CCC(=O)O)c2)c(OC)c1 [Example 36, (E)-2,4,6-trimethoxystyryl-3-[3-(3-carboxypropanoyloxy)-acetamido]-4-methoxybenzylsulfone] | < 10 | < 10 | < 10 | < 10
10 | COc1cc(OC)c(/C=C/S(=O)(=O)Cc2ccc(OC)c(NC(=O)COC(C)=O)c2)c(OC)c1 [Example 26, (E)-2,4,6-trimethoxystyryl-3-(acetoxyacetamido)-4-methoxy-benzylsulfone] | < 10 | < 10 | < 10 | < 10
11 | COc1cc(OC)c(/C=C/S(=O)(=O)Cc2ccc(OC)c(NS(=O)(=O)c3ccc([N+](=O)[O-])cc3[N+](=O)[O-])c2)c(OC)c1 [Example 19, (E)-2,4,6-Trimethoxystyryl-3-(2,4-dinitrobenzenesulfamyl)-4-methoxybenzylsulfone] | < 10 | < 10 | < 10 | < 10
12 | COC(=O)CCC(=O)Nc1cc(CS(=O)(=O)/C=C/c2c(OC)cc(OC)cc2OC)ccc1OC [Example 44, (E)-2,4,6-trimethoxystyryl-3-(methylsuccinamido)-4-methoxy-benzylsulfone] | < 10 | < 10 | < 10 | < 10
13 | COc1cc(OC)c(/C=C/S(=O)(=O)Cc2ccc(OC)c(NCC(=O)O)c2)c(OC)c1 [Example 4, (E)-2,4,6-Trimethoxystyryl-3-(carboxymethylamino)-4-methoxy-benzylsulfone] | < 10 | < 10 | < 10 | < 10
14 | COc1cc(OC)c(/C=C/S(=O)(=O)Cc2ccc(OC)c(NC(=O)C(F)(F)C(F)(F)F)c2)c(OC)c1 [Example 46, (E)-2,4,6-trimethoxystyryl-3-(pentafluoropropionamido)-4-methoxybenzylsulfone] | < 10 | < 10 | < 10 | < 10
15 | COc1cc(OC)c(/C=C/S(=O)(=O)Cc2ccc(OC)c(NC(=O)CN)c2)c(OC)c1 [Example 49, (E)-2,4,6-Trimethoxy-styryl-3-(aminoacetamido)-4-methoxy-benzylsulfone, hydrochloride] | < 10 | < 10 | < 10 | < 10
16 | COc1cc(OC)c(/C=C/S(=O)(=O)Cc2ccc(OC)c(NS(=O)(=O)C(F)(F)F)c2)c(OC)c1 [Example 33, (E)-2,4,6-trimethoxystyryl-3-(trifluoromethanesulfonamido)-4-methoxy-benzylsulfone] | < 10 | < 10 | < 10 | < 10
17 | COc1cc(OC)c(/C=C/S(=O)(=O)Cc2ccc(OC)c(NC(=O)C(C)OC(C)=O)c2)c(OC)c1 (centres unmarked) [Example 43, (E)-2,4,6-trimethoxystyryl-3-(2-acetoxypropionamido)-4-methoxybenzylsulfone] | < 10 | < 10 | < 10 | < 10
